Reference: patent US20150289518A1, “COMPOSITION COMPRISING A BIOLOGICAL CONTROL AGENT AND AN INSECTICIDE” (BAYER CROPSCIENCE AG, priority 2012, published 2015)

How the values were obtained:
Assay type in all cases: in vivo
[1] = tested on: mustard beetle larvae (Phaedon cochleariae); test: Phaedon cochleariae spray test; conditions: mortality, Chinese cabbage leaf disks sprayed
Method: (§1) Formula for the efficacy of the combination of two compounds • The expected efficacy of a given combination of two compounds is calculated as follows (see Colby, S. R., “Calculating Synergistic and antagonistic Responses of Herbicide Combinations”, Weeds 15, pp. 20-22, 1967):
(§2) • X is the efficacy expressed in % mortality of the untreated control for test compound A at a concentration of m ppm respectively m g/ha, • Y is the efficacy expressed in % mortality of the untreated control for test compound B at a concentration of n ppm respectively n g/ha, • E is the efficacy expressed in % mortality of the untreated control using the mixture of A and B at m and n ppm respectively m and n g/ha,
(§3) If the observed insecticidal efficacy of the combination is higher than the one calculated as “E”, then the combination of the two compounds is more than additive, i.e., there is a synergistic effect.
• Solvent: 78.0 parts by weight of acetone • 1.5 parts by weight of dimethylformamide • Emulsifier: alkylaryl polyglycol ether […]
(§4) After the specified period of time, mortality in % is determined. […] The mortality values determined thus are recalculated using the Colby-formula (see sheet 1).

[2] = tested on: green peach aphid (Myzus persicae); test: Myzus persicae spray test; conditions: mortality
Method: as §1, §2, §3
• Solvent: 78.0 parts by weight acetone • 1.5 parts by weight dimethylformamide • Emulsifier: alkylaryl polyglycol ether […]
as §4

[3] = tested on: southern root-knot nematode (Meloidogyne incognita); test: Meloidogyne incognita test (MELGIN); conditions: nematicidal activity by gall formation on salad roots, 0.08 ppm
Method: as §1, §2, §3
• Solvent: 125.0 parts by weight of acetone
To produce a suitable preparation of active compound, 1 part by weight of active compound is mixed with the stated amount of solvent, and the concentrate is diluted with water to the desired concentration. […]
After the specified period the nematicidal activity is determined on the basis of the percentage of gall formation. […] The values determined thus are recalculated using the Colby-formula (see sheet 1).

Row | Compound | Efficacy in % after 6d ([1]; 0.8 g ai/ha) | Efficacy in % after 6d ([2]; 0.8 g ai/ha, test 2, 6 d) | Efficacy in % after 1d ([2]; 4 g ai/ha, test 1, 1 d) | Efficacy in % after 6d ([1]; 0.2 g ai/ha) | Efficacy in % after 14d [3]
1 | N#Cc1nn(-c2c(Cl)cc(C(F)(F)F)cc2Cl)c(N)c1[S+]([O-])C(F)(F)F (centres unmarked) [Fipronil] | 0% | 0% | 0% |  | 
2 | Abamectin |  |  |  | 0% | 0%
